Patent publication US8785499B2 (priority 2009, dated 2014)

Legend:
[1] = molecular target: ecNadD (Escherichia coli (strain K12), UniProt P0A752); experiment: biochemical; type: biochemical; conditions: for IC50: IC50 ecNadD; for inhibition at 100 µM: read-out: INHIBITION (%) E. coli
[2] = molecular target: baNadD (Bacillus anthracis, UniProt C3L5T6); experiment: biochemical; type: biochemical; conditions: for inhibition at 50 µM: read-out: INHIBITION (%) B. anthracis; for IC50: IC50 baNadD
Chain of baNadD (C3L5T6 whole entry, looked up): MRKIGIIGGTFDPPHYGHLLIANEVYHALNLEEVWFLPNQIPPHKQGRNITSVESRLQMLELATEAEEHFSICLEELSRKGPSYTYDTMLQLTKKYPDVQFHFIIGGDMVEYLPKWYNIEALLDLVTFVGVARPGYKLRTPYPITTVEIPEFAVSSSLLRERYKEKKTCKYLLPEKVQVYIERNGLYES

Row | SMILES | […]. coli [1] | […]. anthracis [2] | also measured
1 | NS(=O)(=O)c1ccc(N/C=C2\C(=O)Oc3ccccc3C2=O)cc1 [compound 218] | 0% | 0% | 
2 | CC(/C=N/NC(=O)CCC(=O)Nc1ccc(Br)cc1)c1ccc2ccccc2c1 (centres unmarked) [01_05] |  |  | IC50 [1]: 88 µM; inhibition at 100 µM [1]: 78%; inhibition at 50 µM [2]: 76%
3 | O=C(O)CCC(=O)OC/C=C/c1ccccc1 [compound 247] | 0% | 18% | 
4 | O=C(Nc1ccccc1C(=O)O)c1ccc(Br)o1 [compound 036] | 20% | 0% | 
5 | NC(=O)c1ccc(NC(=O)COc2ccc3ccccc3c2)cc1 [compound 097] | 10% | 63% | 
6 | O=C(O)c1ccc(/C=N/NC(=O)c2cc3cc(Br)ccc3o2)cc1 [compound 172] | 3% | 32% | 
7 | N/C(=N\OCC(=O)Nc1ccc([NH2+][O-])cc1)c1nonc1N [compound 062] | 14% | 0% | 
8 | Cc1nn(-c2ccc([N+](=O)[O-])cc2)c(Cl)c1S(=O)(=O)O [compound 262] | 0% | 5% | 
9 | NNC(=O)CNC(=O)CNS(=O)(=O)c1ccc(Cl)cc1 [compound 250] | 0% | 0% | 
10 | Nc1nc(-c2cc([N+](=O)[O-])cc([N+](=O)[O-])c2)n[nH]1 [compound 253] | 0% | 7% | 
11 | Cc1cc(S(=O)(=O)Nc2cccc(C(=O)O)c2)ccc1Cl [compound 199] | 0% | 0% | 
12 | O=C(O)c1ccccc1NC1=NS(=O)(=O)c2ccccc21 [compound 132] | 6% | 25% | 
13 | COc1ccc(NS(=O)(=O)c2ccc(SC)cc2)cc1 [compound 103] | 9% | 0% | 
14 | O=C(O)C1=C(c2cc([N+](=O)[O-])ccc2O)N=S=N1 [compound 159] | 4% | 1% | 
15 | O=C1Nc2ccccc2/C1=C/NCc1cccnc1 [15_05] |  |  | inhibition at 100 µM [1]: 17%; inhibition at 50 µM [2]: 23%
16 | O=C(CSc1nc2ccccc2o1)Nc1ccc(Cl)cn1 [compound 077] | 12% | 0% | 
17 | Nc1c(C(=O)Nc2ccc(F)cc2F)sc2nc(-c3cccs3)ccc12 [03_07] |  |  | IC50 [1]: 44 µM; inhibition at 100 µM [1]: 69%; IC50 [2]: 18 µM; inhibition at 50 µM [2]: 83%
18 | NS(=O)(=O)c1ccc2nc(NC(=O)CCc3ccccc3)sc2c1 [compound 140] | 6% | 0% | 
19 | O=C(O)C(Cc1ccccc1)NS(=O)(=O)c1ccc2c(c1)OCCO2 (centres unmarked) [compound 246] | 0% | 0% | 
20 | COc1c(C)cc(Br)cc1C(=O)Nc1ccc(S(N)(=O)=O)cc1 [compound 032] | 21% | 8% | 

Row | SMILES | […]. coli [1] | […]. anthracis [2] | also measured
21 | COc1ccc(-c2csc(N)n2)cc1[N+](=O)[O-] [compound 138] | 6% | 54% | 
22 | O=C(CSS(=O)(=O)O)NCCc1c[nH]c2ccccc12 [compound 072] | 12% | 0% | 
23 | CSc1cccc(NS(=O)(=O)c2ccc(Cl)cc2)c1 [compound 306] | 0% | 0% | 
24 | O=C1NC(=O)/C(=C\c2ccc(O)c(I)c2)N1 [compound 194] | 1% | 62% | 
25 | CCOc1ccc(S(=O)(=O)Nc2cccnc2)cc1 [compound 126] | 7% | 22% | 
26 | CC(C)N/C=C1\C(=O)Nc2ccccc21 [15_34] |  |  | inhibition at 100 µM [1]: 4%; inhibition at 50 µM [2]: 9%
27 | Nc1c(C(=O)Nc2cc(F)ccc2F)sc2nc(-c3cccs3)ccc12 [03_18] |  |  | INHIBITION (%) E. coli [1]: 41% 35; IC50 [1]: 35 µM; INHIBITION (%) B. anthracis [2]: 71% 14; IC50 [2]: 14 µM
28 | Nc1c(C(=O)Nc2ccc(F)cc2)sc2nc(-c3ccncc3)ccc12 [03_06] |  |  | IC50 [1]: > 200 µM; inhibition at 100 µM [1]: 80%; IC50 [2]: > 200 µM; inhibition at 50 µM [2]: 40%
29 | O=C(CSC(=O)c1ccccc1)Nc1ccc(Cl)cn1 [compound 177] | 3% | 21% | 
30 | CC(C)c1ccc(N/C=C2\C(=O)Nc3ccccc32)cc1 [15_30] |  |  | inhibition at 100 µM [1]: 7%; inhibition at 50 µM [2]: 42%
31 | O=C(O)CCCC(=O)Nc1nc2ccccc2s1 [compound 207] | 0% | 7% | 
32 | O=S(=O)(NCCc1ccccc1)c1ccc(Br)s1 [compound 307] | 0% | 0% | 
33 | O=C(O)CCC(=O)NNC(=O)c1cccc(O)c1 [compound 017] | 27% | 0% | 
34 | COc1ccc(-c2noc(COc3ccc(Cl)cc3Cl)n2)cc1 [compound 295] | 0% | 11% | 
35 | Nc1c(C(=O)Nc2ccc(Cl)c(Cl)c2)sc2nc(-c3cccs3)ccc12 [03_09] |  |  | inhibition at 100 µM [1]: 60%; inhibition at 50 µM [2]: 63%
36 | Nc1c(C(=O)Nc2ccc(Cl)cc2Cl)sc2nc(-c3ccncc3)ccc12 [03_04] |  |  | IC50 [1]: 21 µM; inhibition at 100 µM [1]: 84%; IC50 [2]: 21 µM; inhibition at 50 µM [2]: 79%
37 | CCc1c(O)nc(SC2CC(=O)N(c3ccccc3)C2=O)nc1O (centres unmarked) [compound 053] | 16% | 0% | 
38 | Nc1ccc(/C=C/c2cccc(C(=O)O)n2)cc1 [compound 054] | 15% | 27% | 
39 | Sc1nnc(-c2ccncc2)n1-c1ccccc1Cl [compound 042] | 19% |  | 
40 | Nc1c(C(=O)Nc2ccc(F)cc2F)sc2nc(-c3ccncc3)ccc12 [03_27] |  |  | inhibition at 100 µM [1]: 0%; inhibition at 50 µM [2]: 20%

Row | SMILES | […]. coli [1] | […]. anthracis [2] | also measured
41 | N=C(N)NNC(=S)Nc1ccc(Cl)cc1 [compound 013] | 30% | 0% | 
42 | Nc1nnc(SCc2ccccc2Cl)s1 [compound 104] | 9% | 29% | 
43 | O=C(NCc1cccs1)C1CC(c2cccc(Br)c2)=NO1 (centres unmarked) [compound 222] | 0% | 0% | 
44 | Cc1c(Cl)cccc1N/C=C1\C(=O)Nc2ccccc21 [15_13] |  |  | inhibition at 100 µM [1]: 12%; inhibition at 50 µM [2]: 36%
45 | O=C(O)c1cccc(NCN2C(=O)c3ccccc3C2=O)c1 [compound 027] | 23% | 0% | 
46 | NS(=O)(=O)c1cc(C(=O)OCC(=O)c2ccccc2)ccc1Cl [compound 269] | 0% | 22% | 
47 | Cc1cccc(C)c1N/C=C1\C(=O)Nc2ccccc21 [15_36] |  |  | inhibition at 100 µM [1]: 4%; inhibition at 50 µM [2]: 11%
48 | O=C(N/N=C/c1ccccc1Cl)c1cccnc1 [compound 202] | 0% | 32% | 
49 | Nc1c(C(=O)Nc2cccc(F)c2)sc2nc(-c3ccc(F)cc3)ccc12 [03_10] |  |  | inhibition at 100 µM [1]: 56%; inhibition at 50 µM [2]: 60%
50 | O=C(O)CCCCCN1C(=O)c2ccc(F)cc2C1=O [compound 024] | 23% | 0% | 
51 | O=C(CCS(=O)(=O)c1ccc(Br)s1)NCc1cccs1 [compound 285] | 0% |  | 
52 | CN1C(=O)S/C(=C\c2ccc(OCC(=O)O)c(I)c2)C1=O [compound 069] | 13% | 7% | 
53 | O=C(O)CN(c1ccccc1)S(=O)(=O)c1ccccc1[N+](=O)[O-] [compound 115] | 8% | 0% | 
54 | COc1cccc(C=C2C(=O)NC(=O)NC2=O)c1OCC(=O)O [compound 098] | 10% | 13% | 
55 | O=C(O)CN(N=Cc1cccc2ccccc12)C(=O)CCC(=O)Nc1ccccc1Cl [1—02—3, {N-[3-(2-Chloro-phenylcarbamoyl)-propionyl]-N′-naphthalen-1-ylmethylene-hydrazino}-acetic acid] |  |  | IC50 [2]: > 200 µM
56 | O=C(O)CNN=C(C(=O)CCC(=O)Nc1ccccc1Cl)c1ccc(C=NN(CC(=O)O)C(=O)CCC(=O)Nc2ccccc2Cl)cc1 [1—02—2, {N′-(4-{Carboxymethyl-[3-(2-chloro-phenylcarbamoyl)-propionyl]-hydrazonomethyl}-benzylidene)-N-[3-(2-chloro-phenylcarbamoyl)-propionyl]-hydrazino}-acetic acid] |  |  | inhibitory activity against baNadD [2]: did not inhibit
57 | Nc1n[nH]c(N)c1/N=N/c1ccccc1 [compound 271] | 0% |  | 
58 | Nc1n[nH]c(N)c1/N=N/c1ccccc1 [compound 272] |  | 23% | 
